{"source": "patent US8524635B2", "about": "“Antifungal composition” (DSM IP Assets B.V., priority 2006, dated 2013)", "key": {"[1]": {"system": "Fusarium oxysporum f. sp. tulipae CBS116591 and Fusarium oxysporum f. sp. tulipae Tu467", "test": "Tulip bulbs (Prominence) inoculated with mould spores, treated, planted in pots; infection scored at full bloom", "format": "in vivo", "settings": "for % of bulbs infected: average of 60 bulbs, control 100", "experimental": "(§1) In this example tulip bulbs of the variety Prominence were treated with a 1:1 mixture of spores of the pathogenic moulds Fusarium oxysporum f. sp. tulipae CBS116591 and Fusarium oxysporum f. sp. tulipae Tu467 by submersing the bulbs for 30 minutes in a suspension containing 50.000-100.000 spores per ml. The mould spores were obtained using well-known methods. It should be noticed that in this challenge test the effect of the compositions was tested under very severe circumstances, because a very high number of mould spores was used. In real practise, the disease pressure will be less severe.\n(§2) After the inoculation with mould spores the bulbs were dried following well-known methods. 40-60 minutes after drying the bulbs were treated with the different compositions described in Table 1. The compositions were prepared according to the instructions described on the label. All compositions contained 0.1% (v/v) of the sticking agent Prolong® (Holland Fyto, The Netherlands) and the surfactant Zipper® (Asepta BV, The Netherlands) in a concentration of 1 ml/l. Subsequently, the bulbs were planted in soil in pots (10 bulbs per pot) and incubated under well known standard conditions for growing tulips.\nThe bulbs were examined for mould infection when the flowers were at full bloom. For each incubation the average observation of 60 bulbs is given. Statistical analysis was performed after an ASIN transformation. The LSD at P=5% was 6.50."}, "[2]": {"settings": "cited from earlier work"}, "[3]": {"system": "Fusarium oxysporum f. sp. tulipae CBS116591 and Fusarium oxysporum f. sp. tulipae Tu467", "test": "Tulip bulb treatment as in Example 1, infected bulbs scored and grouped by ANOVA", "format": "in vivo", "settings": "control 90.0, LSD at P=5% 6.50", "experimental": "as §1, §2\nThis example describes the results of an experiment performed as described in Example 1. Just as in the experiment performed in Example 1, the pH of all solutions was adjusted to 5.7 with KOH or K2CO3 which results in a mixture of two phosphites, KH2PO3 and K2HPO3.\nThe results obtained with a composition comprising 25% of a standard cocktail which is generally applied in practice are included. This standard cocktail contains the commercial products 0.5% (v/v) Captan (546 gram active ingredient per liter), 0.3% (v/v) Prochloraz (450 g/l) and 1% (v/v) Topsin M (500 g/l). The number of infected bulbs was scored and grouped using the well-known statistical method ANOVA (LSD at P=5% was 6.50)."}, "[4]": {"system": "Fusarium oxysporum f. sp. tulipae CBS 116593", "test": "Wounded tulip bulbs infected after harvest, treated and stored 15 days at 24° C., visual mould growth", "format": "in vivo", "settings": "15 days storage; for Amount of non-infected bulbs (in %): control 40; for Amount of bulbs with visible moulds (in %): control 60", "from_the_text": "In this experiment tulip bulbs of the variety Prominence were infected just after harvesting with a spore suspension of Fusarium oxysporum f. sp. tulipae CBS 116593 and treated with the antifungal compositions presented in Table 3. This time, the bulbs were not planted but stored. In this experiment the efficacy of the antifungal composition during the storage of the bulbs was studied.\nAfter harvesting, the outer dry skin of the bulbs was removed and the bulbs were disinfected by applying a treatment with 4% (v/v) Glorix® for 5 minutes. The bulbs were dried and a lesion of a few millimeters was made in the surface of the bulb using a knife. The wound was infected with 15 μl of a spore suspension of Fusarium oxysporum f. sp. tulipae; this way approximately 10.000 mould spores infected the wound after which the bulbs were treated with 30 μl of the compositions described in Table 3. Twenty bulbs were treated per composition. In one experiment the treatment with the antifungal composition was applied 12 hours after infection. The bulbs were incubated for 15 days at a temperature of 24° C. after which the bulbs were examined visually on mould growth."}, "Fusarium mould": {"system": "Fusarium mould", "settings": "Example 11 of WO 2004/067699; cited from earlier work"}, "most fungi": {"system": "most fungi", "settings": "for most fungi; cited from earlier work"}, "Fusarium oxysporum": {"system": "Fusarium oxysporum", "settings": "bulbs dipped two hours at 43.5° C.; Dekker and Langerak (1979); cited from earlier work"}, "Helminthosporium solani": {"system": "Helminthosporium solani", "test": "Seed-potatoes naturally contaminated with silver scurf, sprayed and stored; mould growth and sporulation", "format": "in vivo", "experimental": "Freshly harvested seed-potatoes naturally contaminated with silver scurf were selected for this experiment. The seed-potatoes were treated with the compositions described in Table 4. All compositions contained 0.1% (v/v) of the sticking agent Prolong® (Holland Fyto, The Netherlands) and the surfactant Zipper® (Asepta BV, The Netherlands) in a concentration of 1 ml/l. Said compositions were sprayed on the seed-potatoes using well-known methods after which the seed-potatoes were stored under standard conditions. For each composition 9×25 seed-potatoes were used; of each composition one triple set of seed-potatoes (3×25) was judged visually on mould growth after 1 month of storage (t=1), after 3 months of storage (t=3) and after 6 months of storage (t=6). The mould growth is reported as increase of surface covered with moulds (in percentage). In addition the sporulation of the moulds on the seed-potatoes was examined and scored on a scale from 0 to 4 (0=no sporulation; 4=high sporulation)."}}}
{"compound": "C[C@@H]1C/C=C/C=C/C=C/C=C/[C@H](O[C@@H]2O[C@H](C)[C@@H](O)[C@H](N)[C@@H]2O)C[C@@H]2O[C@](O)(C[C@@H](O)C[C@H]3O[C@@H]3/C=C/C(=O)O1)C[C@H](O)[C@H]2C(=O)O", "note": "[natamycin]", "values": [{"measurement": "% of bulbs infected", "setting": "[1]; natamycin 0.2 g/l", "value": 88, "unit": "%"}, {"measurement": "% of bulbs infected", "setting": "[1]; natamycin 0.5 g/l", "value": 90, "unit": "%"}, {"measurement": "solubility in water", "setting": "[2]", "value": "30-50 ppm"}, {"measurement": "Score (mould infection of tulip bulbs)", "setting": "[3]; 200 ppm natamycin", "value": 76.0}, {"measurement": "Score (mould infection of tulip bulbs)", "setting": "[3]; 500 ppm natamycin", "value": 75.0}, {"measurement": "Amount of non-infected bulbs (in %)", "setting": "[4]; 500 ppm natamycin", "value": 60, "unit": "%"}, {"measurement": "Amount of bulbs with visible moulds (in %)", "setting": "[4]; 500 ppm natamycin", "value": 40, "unit": "%"}, {"measurement": "yellow mould spots on leaves growing from treated tulip bulbs (in words)", "setting": "Fusarium mould", "value": "some yellow spots"}, {"measurement": "MIC (Minimal Inhibitory Concentration)", "setting": "most fungi", "value": "less than 10 ppm"}, {"measurement": "preventing the spread of Fusarium oxysporum in the water baths (in words)", "setting": "Fusarium oxysporum", "value": "as effective as organic mercury or formalin"}, {"measurement": "Increase in percentage of the surface of seed-potatoes covered with mould", "setting": "Helminthosporium solani; natamycin 2000 ppm, t = 1 (1 month of storage), water control 3.8", "value": 1.5, "unit": "%"}, {"measurement": "Sporulation of silver scurf moulds on seed potatoes", "setting": "Helminthosporium solani; natamycin 2000 ppm, t = 1, scale 0 to 4, water control 2.7", "value": 0.8}, {"measurement": "Increase in percentage of the surface of seed-potatoes covered with mould", "setting": "Helminthosporium solani; natamycin 2000 ppm, t = 3 (3 months of storage), water control 3.4", "value": 3.0, "unit": "%"}, {"measurement": "Sporulation of silver scurf moulds on seed potatoes", "setting": "Helminthosporium solani; natamycin 2000 ppm, t = 3, scale 0 to 4, water control 1.8", "value": 1.1}, {"measurement": "Increase in percentage of the surface of seed-potatoes covered with mould", "setting": "Helminthosporium solani; natamycin 2000 ppm, t = 6 (6 months of storage), water control 7.8", "value": 3.8, "unit": "%"}, {"measurement": "Sporulation of silver scurf moulds on seed potatoes", "setting": "Helminthosporium solani; natamycin 2000 ppm, t = 6, scale 0 to 4, water control 2.4", "value": 1.8}, {"measurement": "Increase in percentage of the surface of seed-potatoes covered with mould", "setting": "Helminthosporium solani; natamycin 5000 ppm, t = 1 (1 month of storage), water control 3.8", "value": 0.8, "unit": "%"}, {"measurement": "Sporulation of silver scurf moulds on seed potatoes", "setting": "Helminthosporium solani; natamycin 5000 ppm, t = 1, scale 0 to 4, water control 2.7", "value": 0.6}, {"measurement": "Increase in percentage of the surface of seed-potatoes covered with mould", "setting": "Helminthosporium solani; natamycin 5000 ppm, t = 3 (3 months of storage), water control 3.4", "value": 2.6, "unit": "%"}, {"measurement": "Sporulation of silver scurf moulds on seed potatoes", "setting": "Helminthosporium solani; natamycin 5000 ppm, t = 3, scale 0 to 4, water control 1.8", "value": 1.2}, {"measurement": "Increase in percentage of the surface of seed-potatoes covered with mould", "setting": "Helminthosporium solani; natamycin 5000 ppm, t = 6 (6 months of storage), water control 7.8", "value": 3.5, "unit": "%"}, {"measurement": "Sporulation of silver scurf moulds on seed potatoes", "setting": "Helminthosporium solani; natamycin 5000 ppm, t = 6, scale 0 to 4, water control 2.4", "value": 0.7}]}
{"compound": "copper lignosulphonate", "values": [{"measurement": "effect on mould infection of tulip bulbs (in words)", "setting": "[1]; conclusion from Table 1", "value": "did not lead to reduction of moulds"}, {"measurement": "% of bulbs infected", "setting": "[1]; copper lignosulphonate 2 g/l", "value": 97, "unit": "%"}]}
{"compound": "potassium phosphite", "values": [{"measurement": "% of bulbs infected", "setting": "[1]; potassium phosphite 20 g/l", "value": 87, "unit": "%"}, {"measurement": "Score (mould infection of tulip bulbs)", "setting": "[3]; 120 mM phosphite, pH 5.7", "value": 72.9}, {"measurement": "Amount of non-infected bulbs (in %)", "setting": "[4]; 120 mM phosphite", "value": 50, "unit": "%"}, {"measurement": "Amount of bulbs with visible moulds (in %)", "setting": "[4]; 120 mM phosphite", "value": 50, "unit": "%"}, {"measurement": "Increase in percentage of the surface of seed-potatoes covered with mould", "setting": "Helminthosporium solani; phosphite 120 mM, t = 1 (1 month of storage), water control 3.8", "value": 2.5, "unit": "%"}, {"measurement": "Sporulation of silver scurf moulds on seed potatoes", "setting": "Helminthosporium solani; phosphite 120 mM, t = 1, scale 0 to 4 (0=no sporulation; 4=high sporulation), water control 2.7", "value": 1.3}, {"measurement": "Increase in percentage of the surface of seed-potatoes covered with mould", "setting": "Helminthosporium solani; phosphite 120 mM, t = 3 (3 months of storage), water control 3.4", "value": 4.0, "unit": "%"}, {"measurement": "Sporulation of silver scurf moulds on seed potatoes", "setting": "Helminthosporium solani; phosphite 120 mM, t = 3, scale 0 to 4, water control 1.8", "value": 1.0}, {"measurement": "Increase in percentage of the surface of seed-potatoes covered with mould", "setting": "Helminthosporium solani; phosphite 120 mM, t = 6 (6 months of storage), water control 7.8", "value": 6.9, "unit": "%"}, {"measurement": "Sporulation of silver scurf moulds on seed potatoes", "setting": "Helminthosporium solani; phosphite 120 mM, t = 6, scale 0 to 4, water control 2.4", "value": 1.3}]}
